Assay results reported in patent US11053300B2, “Membrane span-kinase fusion protein and the uses thereof” (VIB VZW, priority 2012, dated 2021).

Experiments:
ERN1 [1] = target: T1, ERN1 (Homo sapiens, UniProt O75460); assay: ERN1 dimerization, ERN1-Tyk2(C)/ERN1-gp130 luciferase reporter assay; assay type: cell-based; design: Flag (N); expressed in transfected cells; host or cells: HEK293-T
Experimental: Transfections were carried out using a standard calcium phosphate method. HEK293-T cells were seeded in black tissue-culture treated 96-well plates at 10.000 cells/well in 100 μl culture medium (DMEM supplemented with 10% FCS). Twenty-four hours later, plasmid DNA mixes were prepared that contained plasmids encoding fusion proteins with the first and second interacting proteins and reporter plasmids. The DNA was supplemented with 5 μl 2.5M CaCl2) and double distilled water to a final volume of 50 μl. This mixture was added drop wise to 50 μl 2×HeBS buffer (280 mM NaCl, 1.5 mM Na2HPO4, 50 mM Hepes; pH 7.05) while vigorously vortexing. After incubation at room temperature for 15 min. to allow DNA precipitates to form, the solution was added to the cells at 10 μl/well. Cells were incubated at 37° C., 8% CO2. Twenty-four hours after transfection, cells were treated with the indicated amounts of ligand, either alone or combined with the indicated amount of antagonist. […] Another twenty-four hours later, luciferase activity was measured using the Luciferase Assay System kit (Promega) on a TopCount luminometer (Perkin-Elmer). Each transfection was done in triplicate and the average of the luciferase activity readings was used in the calculations.
Tunicamycin (Sigma T7765; 2 mg/ml stock in DMSO) was diluted in culture medium and added to the cells 24 h prior to luciferase signal read-out. […]
Target sequence in this assay (O75460 with tags, fused parts or gaps): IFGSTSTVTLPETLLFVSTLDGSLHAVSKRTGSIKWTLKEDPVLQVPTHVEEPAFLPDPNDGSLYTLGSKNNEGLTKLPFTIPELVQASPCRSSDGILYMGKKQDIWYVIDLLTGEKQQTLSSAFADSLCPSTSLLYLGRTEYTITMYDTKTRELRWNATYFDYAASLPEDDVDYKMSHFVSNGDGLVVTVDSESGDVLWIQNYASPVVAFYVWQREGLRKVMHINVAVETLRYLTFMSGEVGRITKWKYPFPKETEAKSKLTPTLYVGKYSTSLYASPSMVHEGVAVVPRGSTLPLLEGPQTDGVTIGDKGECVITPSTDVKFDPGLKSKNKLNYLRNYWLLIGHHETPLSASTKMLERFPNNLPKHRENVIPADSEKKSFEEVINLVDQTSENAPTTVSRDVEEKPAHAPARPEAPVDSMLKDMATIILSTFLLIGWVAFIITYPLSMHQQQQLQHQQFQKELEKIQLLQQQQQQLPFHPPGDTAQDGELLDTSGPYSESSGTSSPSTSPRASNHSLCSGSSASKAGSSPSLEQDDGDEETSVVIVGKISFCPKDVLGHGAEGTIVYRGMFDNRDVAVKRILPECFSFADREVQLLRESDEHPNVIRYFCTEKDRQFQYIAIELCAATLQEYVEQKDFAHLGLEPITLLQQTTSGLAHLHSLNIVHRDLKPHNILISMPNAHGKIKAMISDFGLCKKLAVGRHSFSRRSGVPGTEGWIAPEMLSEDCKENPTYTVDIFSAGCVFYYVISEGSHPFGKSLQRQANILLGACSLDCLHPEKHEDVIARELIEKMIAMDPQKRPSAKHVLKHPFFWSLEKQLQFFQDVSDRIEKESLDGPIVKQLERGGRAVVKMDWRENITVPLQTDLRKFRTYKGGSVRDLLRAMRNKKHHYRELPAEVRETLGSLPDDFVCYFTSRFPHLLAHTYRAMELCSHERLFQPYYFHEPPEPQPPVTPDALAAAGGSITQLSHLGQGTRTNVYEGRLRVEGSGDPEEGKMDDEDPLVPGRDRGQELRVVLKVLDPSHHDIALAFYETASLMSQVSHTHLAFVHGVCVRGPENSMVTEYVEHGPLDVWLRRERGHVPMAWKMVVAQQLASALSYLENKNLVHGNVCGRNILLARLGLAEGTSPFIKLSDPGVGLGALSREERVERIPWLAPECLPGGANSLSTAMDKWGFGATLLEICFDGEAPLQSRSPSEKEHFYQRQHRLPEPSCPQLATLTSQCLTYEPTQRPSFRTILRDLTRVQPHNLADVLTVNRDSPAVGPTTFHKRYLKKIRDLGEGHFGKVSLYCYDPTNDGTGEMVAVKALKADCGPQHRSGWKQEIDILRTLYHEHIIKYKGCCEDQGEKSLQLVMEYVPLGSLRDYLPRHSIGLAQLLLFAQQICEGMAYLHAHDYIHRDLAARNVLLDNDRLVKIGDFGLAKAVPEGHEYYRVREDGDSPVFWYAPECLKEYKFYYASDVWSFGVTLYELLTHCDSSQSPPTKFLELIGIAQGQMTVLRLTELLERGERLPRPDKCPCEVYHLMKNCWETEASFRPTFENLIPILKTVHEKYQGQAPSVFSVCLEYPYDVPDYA

ERN1 [2] = target: T1, ERN1; details: reported, Feldman and Koong, 2007; cited from earlier work
Target sequence in this assay (O75460 19-977, species assumed): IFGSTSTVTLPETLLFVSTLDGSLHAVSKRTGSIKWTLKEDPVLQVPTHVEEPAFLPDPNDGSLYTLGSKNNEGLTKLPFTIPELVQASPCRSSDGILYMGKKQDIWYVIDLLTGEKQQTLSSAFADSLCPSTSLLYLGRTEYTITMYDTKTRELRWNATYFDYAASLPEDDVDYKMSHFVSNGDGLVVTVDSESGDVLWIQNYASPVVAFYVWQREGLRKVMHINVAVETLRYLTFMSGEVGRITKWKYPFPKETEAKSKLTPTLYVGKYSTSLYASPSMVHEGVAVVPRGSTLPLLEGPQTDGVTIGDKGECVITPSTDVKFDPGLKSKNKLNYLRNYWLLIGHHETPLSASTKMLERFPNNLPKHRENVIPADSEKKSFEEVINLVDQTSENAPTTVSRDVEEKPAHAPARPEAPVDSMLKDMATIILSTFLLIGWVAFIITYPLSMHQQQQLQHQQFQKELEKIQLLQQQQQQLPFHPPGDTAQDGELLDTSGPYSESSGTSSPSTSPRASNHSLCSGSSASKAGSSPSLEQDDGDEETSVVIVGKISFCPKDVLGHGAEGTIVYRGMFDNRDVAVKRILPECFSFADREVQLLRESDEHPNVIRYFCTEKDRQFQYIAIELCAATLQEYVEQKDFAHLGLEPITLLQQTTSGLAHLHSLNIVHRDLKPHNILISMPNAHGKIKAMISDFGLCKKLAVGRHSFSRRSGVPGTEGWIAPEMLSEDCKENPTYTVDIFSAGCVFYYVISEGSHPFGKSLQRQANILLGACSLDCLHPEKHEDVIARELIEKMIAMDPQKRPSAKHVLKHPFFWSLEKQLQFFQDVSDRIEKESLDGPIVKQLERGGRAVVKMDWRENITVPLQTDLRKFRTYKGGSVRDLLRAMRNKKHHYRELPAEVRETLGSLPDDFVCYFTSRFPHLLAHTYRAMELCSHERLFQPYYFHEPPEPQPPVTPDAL

[3] = target: T2, human somatostatin receptor 2 (SSTR2) (Homo sapiens, UniProt P30874); assay: Ligand-dependent SSTR2-ARRB2 interaction, Tyk2(C)/gp130 fusion STAT3-luciferase reporter assay; assay type: cell-based; details: for effect of antagonist on SSTR2-ARRB2 interaction signal: 1 μM somatostatin, 0.05 or 0.5 μM CYN154806, 0.1 or 1 μM losartan or telmisartan, FIG. 4 transfection b; for effect of antagonist on SSTR2-ARRB2 interaction signal, dose-response: 10 μM somatostatin, antagonist 10^-13 M up to 10^-6 M, FIG. 5A
T2 construct: expressed in transfected cells; host or cells: HEK293-T
T2 sequence (P30874 with tags, fused parts or gaps): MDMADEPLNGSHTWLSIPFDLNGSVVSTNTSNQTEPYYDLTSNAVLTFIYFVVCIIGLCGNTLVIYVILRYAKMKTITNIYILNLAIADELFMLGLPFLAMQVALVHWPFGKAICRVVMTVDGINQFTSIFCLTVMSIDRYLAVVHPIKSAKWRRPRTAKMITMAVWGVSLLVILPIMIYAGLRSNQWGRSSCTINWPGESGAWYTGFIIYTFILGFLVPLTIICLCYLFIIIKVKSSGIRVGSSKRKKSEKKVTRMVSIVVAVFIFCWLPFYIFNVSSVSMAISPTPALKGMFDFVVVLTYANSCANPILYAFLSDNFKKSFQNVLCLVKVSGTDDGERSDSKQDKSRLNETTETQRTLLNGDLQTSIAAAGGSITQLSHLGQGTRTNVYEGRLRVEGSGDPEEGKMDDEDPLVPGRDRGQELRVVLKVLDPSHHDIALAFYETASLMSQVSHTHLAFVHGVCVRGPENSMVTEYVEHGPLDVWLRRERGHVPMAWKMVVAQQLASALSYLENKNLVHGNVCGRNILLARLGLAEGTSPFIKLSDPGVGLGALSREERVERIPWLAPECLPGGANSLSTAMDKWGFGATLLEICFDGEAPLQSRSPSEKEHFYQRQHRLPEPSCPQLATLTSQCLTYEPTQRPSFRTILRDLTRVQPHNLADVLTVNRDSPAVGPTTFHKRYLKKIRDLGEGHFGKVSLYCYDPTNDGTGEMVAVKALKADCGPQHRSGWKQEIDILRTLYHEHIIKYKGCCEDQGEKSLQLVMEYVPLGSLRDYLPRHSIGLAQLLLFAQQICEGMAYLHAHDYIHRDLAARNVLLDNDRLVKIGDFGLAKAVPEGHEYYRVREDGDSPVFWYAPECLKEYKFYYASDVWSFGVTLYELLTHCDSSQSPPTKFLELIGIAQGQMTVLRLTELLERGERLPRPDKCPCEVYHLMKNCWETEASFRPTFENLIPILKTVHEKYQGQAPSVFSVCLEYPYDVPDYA
Excerpt: (§1) The membrane span protein (X) is fused to the C-terminal region of Tyk2 comprising the kinase domain, whereas the polypeptide interacting with the membrane span protein (Y) is fused to a fragment of gp130 which contains phosphorylation sites. When membrane span protein X and the polypeptide Y interact, the Tyk2 kinase domain phosphorylates the phosphorylation sites of gp130. STAT3 transcription factors are recruited to these phosphorylated sites and are in turn phosphorylated by the Tyk2 kinase domain, which results in their activation. Dimers of activated STAT3 transcription factors are able to bind the specific rPAPI promoter, which drives the expression of a firefly luciferase reporter gene. The activity of this reporter gene is measured as light production in a luciferase detection assay using a luminometer.
(§2) The fold induction for each sample was calculated as the ratio of the measured luciferase activity relative to the luciferase activity for the untreated sample of the same transfection.
The assay was further optimized by transferring the Tyk2(C) fusion construct into another vector system (pSVSport) and testing the resulting constructs in a similar experiment as described above. The following combinations of plasmids were transfected (500 ng of the Tyk2(C) fusion construct, 250 ng of the gp130 fusion construct and 50 ng of the luciferase reporter construct) according to the methods described above: […]

[4] = target: T3, human angiotensin receptor 1 (AGTR1) (Homo sapiens, UniProt P30556); assay: Ligand-dependent AGTR1-ARRB2 interaction, Tyk2(C)/gp130 fusion STAT3-luciferase reporter assay; assay type: cell-based; details: 10 μM angiotensin II; for effect of antagonist on AGTR1-ARRB2 interaction signal: 0.05 or 0.5 μM CYN154806, 0.1 or 1 μM losartan or telmisartan, FIG. 4 transfection d; for effect of antagonist on AGTR1-ARRB2 interaction signal, dose-response: antagonist 10^-13 M up to 10^-6 M
T3 construct: expressed in transfected cells; host or cells: HEK293-T
T3 sequence (P30556 with tags, fused parts or gaps): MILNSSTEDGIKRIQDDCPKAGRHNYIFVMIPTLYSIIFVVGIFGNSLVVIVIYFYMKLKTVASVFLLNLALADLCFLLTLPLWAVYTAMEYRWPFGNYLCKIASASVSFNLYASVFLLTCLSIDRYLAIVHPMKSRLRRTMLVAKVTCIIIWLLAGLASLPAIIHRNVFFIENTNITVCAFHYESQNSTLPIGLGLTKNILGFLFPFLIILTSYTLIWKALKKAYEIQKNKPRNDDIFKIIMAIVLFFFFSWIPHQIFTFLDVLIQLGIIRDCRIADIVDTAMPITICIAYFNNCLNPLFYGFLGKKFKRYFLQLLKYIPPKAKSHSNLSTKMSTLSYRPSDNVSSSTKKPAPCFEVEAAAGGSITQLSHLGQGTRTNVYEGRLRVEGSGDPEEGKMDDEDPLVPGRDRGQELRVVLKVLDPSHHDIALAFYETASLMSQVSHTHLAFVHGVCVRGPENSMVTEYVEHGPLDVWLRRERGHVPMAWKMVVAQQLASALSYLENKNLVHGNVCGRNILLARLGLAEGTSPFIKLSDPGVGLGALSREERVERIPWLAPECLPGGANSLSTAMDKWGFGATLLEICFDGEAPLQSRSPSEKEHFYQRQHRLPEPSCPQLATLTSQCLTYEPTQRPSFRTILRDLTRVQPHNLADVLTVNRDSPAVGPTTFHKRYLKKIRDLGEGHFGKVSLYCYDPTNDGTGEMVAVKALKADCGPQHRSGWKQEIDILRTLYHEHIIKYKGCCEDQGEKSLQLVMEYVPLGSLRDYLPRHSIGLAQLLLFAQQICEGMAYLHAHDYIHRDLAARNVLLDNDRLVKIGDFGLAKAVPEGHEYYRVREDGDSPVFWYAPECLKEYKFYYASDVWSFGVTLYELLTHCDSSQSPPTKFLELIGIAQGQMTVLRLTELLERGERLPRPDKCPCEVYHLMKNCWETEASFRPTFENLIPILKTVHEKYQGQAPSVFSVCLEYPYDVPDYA
Excerpt: as §1
Transfections were carried out using a standard calcium phosphate method. HEK293-T cells were seeded in black tissue-culture treated 96-well plates at 10.000 cells/well in 100 μl culture medium (DMEM supplemented with 10% FCS). Twenty-four hours later, plasmid DNA mixes were prepared that contained plasmids encoding fusion proteins with the first and second interacting proteins and reporter plasmids. The DNA was supplemented with 5 μl 2.5M CaCl2) and double distilled water to a final volume of 50 μl. This mixture was added drop wise to 50 μl 2×HeBS buffer (280 mM NaCl, 1.5 mM Na2HPO4, 50 mM Hepes; pH 7.05) while vigorously vortexing. After incubation at room temperature for 15 min. to allow DNA precipitates to form, the solution was added to the cells at 10 μl/well. Cells were incubated at 37° C., 8% CO2. Twenty-four hours after transfection, cells were treated with the indicated amounts of ligand, either alone or combined with the indicated amount of antagonist. In the case of Irestatin 9389, cells were pre-treated with the antagonist before adding vehicle (DMSO) or tunicamycin. Another twenty-four hours later, luciferase activity was measured using the Luciferase Assay System kit (Promega) on a TopCount luminometer (Perkin-Elmer). Each transfection was done in triplicate and the average of the luciferase activity readings was used in the calculations.
as §2
Cells were transfected with the following combinations of plasmids (250 ng of the Tyk2(C) fusion construct, 250 ng of the gp130 fusion construct and 50 ng of the luciferase reporter construct) according to the methods described above:
Cells were transfected with 125 ng of the pMet7-SSTR2-Tyk2(C)−HA or pMet7-AGTR1-Tyk2(C)−HA fusion construct, 250 ng of the pMG2-ARRB2 gp130 fusion construct and 50 ng of the pXP2d2-rPAPI-luciferase reporter plasmid, according to the methods described above.

Compound	disruption of ERN1 dimerization (ERN1 [1]; 1 μg/ml tunicamycin or vehicle (DMSO) combined with increasing doses of Irestatin 9389, FIG. 6D)	ERN1 endonuclease activity (ERN1 [2])	effect of antagonist on SSTR2-ARRB2 interaction signal [3]	effect of antagonist on SSTR2-ARRB2 interaction signal, dose-response [3]	effect of antagonist on AGTR1-ARRB2 interaction signal [4]	effect of antagonist on AGTR1-ARRB2 interaction signal, dose-response ([4]; FIG. 5B)	effect of telmisartan compared to losartan on AGTR1-ARRB2 interaction ([4]; dose-response, FIG. 5B)	luciferase signal of ERN1 dimerization upon induction of ER-stress (ERN1 [1]; HEK293-T cells, ERN1-Tyk2(C) + ERN1-gp130, 0-0.5-1-2 μg/ml tunicamycin, FIG. 6A)
Cc1csc(NC(=O)CSc2nc3c(c(C(F)(F)F)c2C#N)CCC3)n1 [Irestatin 9389]	dose-dependent disruption of ERN1 dimerization	inhibit ERN1 endonuclease activity						
CCCCc1nc(Cl)c(CO)n1Cc1ccc(-c2ccccc2-c2nn[nH]n2)cc1 [losartan]			no effect	no effect	selectively inhibited	selectively and completely inhibited		
CCCc1nc2c(C)cc(-c3nc4ccccc4n3C)cc2n1Cc1ccc(-c2ccccc2C(=O)O)cc1 [telmisartan]			no effect	no effect	selectively inhibited	selectively and completely inhibited	stronger effect	
tunicamycin								dose-dependent signal
